This is an account of results in patent US7658706B2, “Vascular graft sterilization and decellularization” (RTI Biologics, Inc., priority 2005, dated 2010).

Read-outs that look alike come from different tables or passages of the source.

The subject of data set [1] is class I MHC antigens in human saphenous vein. Nature of the data set: Immunohistochemical stain for class I MHC antigens after decellularization (Example 1). Here is the method: The effectiveness of cell and cellular debris removal was evaluated using two detergent and two enzyme solutions at various concentrations (Table 2). […] One treatment group combined Triton-X 100 with sodium deoxycholate. Trypsin alone at 0.05% (w/v) or 1.0% (w/v) and in combination with 0.02% (w/v) EDTA were the enzyme solutions used in the decellularization process.
Samples were then rinsed in PBS at room temperature for 10 minutes while continuously shaking. Following the rinse step, the samples were cut in half and either prepared for histology or immunohistochemistry.
Immunohistochemistry was used to determine the level of antigens remaining in the tissue after treatment. […] Samples were prepared in frozen blocks and sectioned with a cryostat. The sections were thawed and then rinsed for blocking and antibody staining. Sections were incubated for 30 minutes in primary antibody (mouse anti-HLA-ABC class I MHC) solution and then for anther 30 minutes in diluted biotinylated secondary antibody (Vector ABC Elite kit) solution. An enzyme substrate, NovaRed (Vector), was used to stain the antibodies red. The counter stain was hematoxylin providing a blue contrast.
A Zeiss Axiophot 2 microscope with a motorized Ludl scanning stage was used with tile field mapping at 5× to capture the entire image in one frame. Particle analysis was performed in Image J to determine the ratio of antigen staining (red) to the total tissue sample.
A blue and green filter was applied to only allow red to pass. Obvious areas of antigen staining were removed due to this variation in red hue. […] All samples were compared to their negatives for a percentage of red staining.
This procedure was applied to all images. […] The treatment groups are labeled according to the detergent or enzyme used followed by the processing conditions. For the Trypsin and Trypsin+EDTA groups, the concentrations ranged from 0.05% (L) to 1.0% (H), the processing temperatures were 37° C. (L), 48° C. (M) and 55° C. (H), and the processing times were 6 hrs (L), 17 hrs (M) and 24 hrs (H).

The test system of data set [2] is human greater saphenous vein. The note with it: 0.075% SDS; cited from earlier work.
Data set [3] deals with human saphenous vein. Nature of the data set: Histology (H&E) for cellularity and matrix (Example 1). The note with it: 0.05% Trypsin, 37° C., 6 or 24 hours (FIGS. 7, 8). Here is the method:
Samples of human saphenous veins 10 mm in length were placed in each of the test solution at 37° C. or 48° C. for both 6 and 24 hours while continuously shaking. Samples were then rinsed in PBS at room temperature for 10 minutes while continuously shaking. Following the rinse step, the samples were cut in half and either prepared for histology or immunohistochemistry.
Samples were placed in 10% buffered formalin immediately following the rinse step and remained there for at least 24 hours before further preparation. Then, the samples were embedded in paraffin and stained with hematoxylin and eosin (H&E) to determine cellularity.
The results of the immunohistochemical stain were compared to histology slides stained for cellularity (FIGS. 7 to 10). […] The extracellular matrix is preserved in each segment except with 1.0% Cholate at 48° C.

Data set [4] has as its system collagen. Nature of the data set: Collagen denaturation, quantitative enzyme digestion assay (matrix integrity). Here is the method: One of the major structural components of the extracellular matrix that gives veins their strength is collagen. Damage to collagen can result in mechanical failures such as increased compliance or aneurism formation. It can also result in a cellular response due the exposure of the triple helix when stability is compromised. The amount of collagen denaturation was assessed to evaluate processing conditions with a quantitative enzyme digestion assay. […] Digested and undigested fractions are separated and hydrolyzed with concentrated hydrochloric acid (HCl) to release free amino acids from each fraction. Following neutralization of the acid in 1 N NaOH, levels of hydroxyproline (an amino acid present in high concentrations in collagen) are assessed in each fraction by a calorimetric method at a wavelength of 550 nm (Chloramine T binding, and reduction of the substrate DAB to a colored end product). The level of denatured collagen in a given sample is then expressed as a percent of the trypsin soluble fraction to the sum of both trypsin soluble and trypsin insoluble fractions.
Achieving the appropriate log reduction should not come at the expense of the integrity of the extracellular matrix. […] The effect of hydrogen peroxide at 6% at 40° C. and 50° C. on collagen was compared to PAA at 0.1% at the same specified temperatures.
Digested and undigested fractions are separated and hydrolyzed with concentrated hydrochloric acid (HCl) to release free amino acids from each fraction. Following neutralization of the acid in 1 N NaOH, levels of hydroxyproline (an amino acid present in high concentrations only in collagen) are assessed in each fraction by a calorimetric method (Chloramine T binding, and reduction of the substrate DAB to a colored end product). The level of denatured collagen in a given sample is then expressed as a percent of the trypsin soluble fraction to the sum of both trypsin soluble and trypsin insoluble fractions.

On to `O=C(O)CN(CCN(CC(=O)O)CC(=O)O)CC(=O)O` [EDTA], for which the “effect of addition of EDTA on removal of cells” value in data set [1] (added to Triton at 0.25%, 6 hours, 37° C.) is on record as “enhance the removal of cells”. Besides, the “effect of addition of EDTA on removal of antigens” value in data set [1] (added to Trypsin) was “inconsistent effect”.

Consider `CCCCCCCCCCCCOS(=O)(=O)[O-].[Na+]` [SDS, sodium dodecyl sulfate], for which the transmural cell removal in data set [2] is above 94%.

For the compound Trypsin, in data set [1] (1.0% Trypsin or 1.0%/0.02% Trypsin/EDTA, minimum of 48° C. and 17 hrs), the level of antigens entry is given as “significantly reduced the level of antigens”. Moreover, the cellularity in histology entry in data set [3] was “still evidence of cells”. Further, in data set [4], the “collagen degradation compared to untreated controls” value is recorded as “less than half of the degradation of the untreated controls”.

For the compound octylphenol ethoxylate [Triton], the “collagen degradation compared to untreated controls” value in data set [4] (Triton 1.0%, Cholate 0.25%, 48° C., 24 hours, constant agitation (FIG. 11)) is given as “A significant degradative effect was not seen”.
